Data from patent US20250090462A1, “LIPID COMPOUND AND PREPARATION METHOD THEREFOR, AND USE THEREOF” (South China University of Technology, priority 2022, published 2025).

Legend:
[1] = Particle size, PDI and Zeta potential of lipid compound nanoparticles (DLS); type: physicochemical; conditions: LNP with pDNA-GFP-Luc, lipid compound:Cholesterol:DOPE:DSPE-PEG=40:48:10:2, N/P 24:1, pH=5.3
Description: Lipid compounds 3-2-C8, 3-3-C8, 3-4-C8, 3-5-C8, 10-2-C8, 10-3-C8, 10-4-C8 and 10-5-C8 were used as nanocarrier materials to encapsulate pDNA-GFP-Luc to test the particle size (Size), polymer dispersion index (PDI) and Zeta potential of the lipid nanoparticles.
Ionizable lipids 3-2-C8, 3-3-C8, 3-4-C8, 3-5-C8, 10-2-C8, 10-3-C8, 10-4-C8, 10-5-C8 and dioleoyl phosphatidyl ethanolamine (DOPE), cholesterol, distearoylphosphatidylacetamide-polyethylene glycol (DSPE-PEG) were dissolved in anhydrous ethanol at a certain concentration, the components were uniformly mixed according to a certain molar ratio of lipid compound:Cholesterol:DOPE:DSPE-PEG=40:48:10:2, at the same time, a proper amount of pDNA-GFP-Luc was dissolved in sodium acetate buffer (the volume of sodium acetate buffer was twice the total volume of lipid mixture, pH=5.3), and the pDNA-GFP-Luc dissolved in the buffer was taken into the lipid mixture solution, and quickly mixed to assemble into lipid nanoparticles, the mixed solution was incubated at room temperature for 15 min, and the particle size and potential were tested by dynamic light scattering instrument (DLS). The nitrogen-phosphorus ratio (N/P ratio) of ionizable lipid to pDNA (24:1) was the optimal ratio, that is, the molar ratio between the protonated amino group on the ionized lipid and the phosphate group on the DNA. 2) Analysis of experimental results:
FIG. 11 is the particle size test diagram of nanoparticles prepared by lipid compounds. Table 2 is the Zeta potential test results of nanoparticles prepared by lipid compounds.
The charge is 13.0±1.56-28.7±4.36 mV, which is consistent with the characteristics of lipid nanoparticles, the smaller particle sizes can exert the high permeability and long retention effect (EPR), leading to better accumulation in the tumor sites.

[2] = In vivo RNA imaging (IVIS) of repRNA-Luc delivery after intramuscular injection; parameters: species or system C57BL/6 mice; conditions: for repRNA-Luc expression by IVIS: 3rd day after intramuscular injection, 150 ng repRNA-Luc, DSPC LNP; for course of expression values with time (IVIS total flux): after intramuscular injection of repRNA-Luc LNP
Text: Ionizable lipid compounds 3-4-C8, 3-5-C8, 10-4-C8, 10-5-C8, and 11-4-C8 were used to deliver self-amplifying RNA (Rep RNA-Luc) encoding firefly luciferase (Luc) in C57BL/6 mice. After intramuscular injection in mice, the in vivo imaging system (IVIS) was used to detect on the 3rd, 5th, and 7th day after injection.
1) The specific steps are the same with the lipid compound delivering RNA test in performance test 3, the difference in this performance test, the experimental group: ionizable lipid compounds 3-4-C8, 3-5-C8, 10-4-C8, 10-5-C8 or 11-4-C8 and distearoyl phosphatidylcholine (DSPC), cholesterol (Cholesterol), distearoyl phosphatidylacetamide-polyethylene glycol (DSPE-PEG) or blank group are dissolved in anhydrous and non-enzymatic ethanol according to a certain concentration, the use of the ratio is ionizable lipid compounds 3-4-C8, 8-4-C8, 10-4-C8 or 11-4-C8:Cholesterol:DSPC:DSPE-PEG=40:48:10:2. A proper amount of repRNA-Luc was dissolved in sodium acetate buffer (the volume of sodium acetate buffer was twice the total volume of the lipid mixture, pH=5.3), the repRNA-Luc dissolved in the buffer was added into the lipid mixture solution and quickly mixed to assemble into lipid nanoparticles, the mixed solution was incubated at room temperature for 15 min, and then dialyzed in ultrapure water for 0.5 h using a dialysis bag (14000 MW), finally, 10% glucose solution was added to the lipid nanoparticle solution to adjust the osmotic pressure for intramuscular injection (LNP containing 150 ng of repRNA-Luc in each dose). Among them, the N/P ratio of ionizable lipid to mRNA (N/P ratio) is 24:1, which is the optimal ratio, that is, the molar ratio between the protonated amino group on the ionizable lipid and the phosphate group on the DNA.
FIG. 18 is the detection map of the in vivo imaging system for lipid nanoparticles injected into mice. FIG. 19 is an injection time and total flux of the lipid compound.

CCCCCCCCC(CCCCCCCC)OC(=O)NCCCCOC(=O)CCN(CCC(=O)OCCCCNC(=O)OC(CCCCCCCC)CCCCCCCC)CCN(C)C [10-4-C8]
Zeta potential [1]: 23.5 ± 4.87 mV | repRNA-Luc expression by IVIS [2]: successfully expressed | course of expression values with time (IVIS total flux) [2]: increased with time

CCCCCCCCC(CCCCCCCC)OC(=O)NCCCCOC(=O)CCN(CCC(=O)OCCCCNC(=O)OC(CCCCCCCC)CCCCCCCC)CCN1CCCC1 [3-4-C8]
Zeta potential [1]: 20.2 ± 3.07 mV | repRNA-Luc expression by IVIS [2]: successfully expressed | course of expression values with time (IVIS total flux) [2]: increased with time

CCCCCCCCC(CCCCCCCC)OC(=O)NCCOC(=O)CCN(CCC(=O)OCCNC(=O)OC(CCCCCCCC)CCCCCCCC)CCN(C)C [10-2-C8]
Zeta potential [1]: 20.7 ± 2.77 mV

CCCCCCCCC(CCCCCCCC)OC(=O)NCCOC(=O)CCN(CCC(=O)OCCNC(=O)OC(CCCCCCCC)CCCCCCCC)CCN1CCCC1 [3-2-C8]
Zeta potential [1]: 13.0 ± 1.56 mV
